Here are results for 14 compounds from US20160046618A1, “Cyclopropyl Fused Thiazin-2-Amine Compounds as Beta-Secretase Inhibitors and Methods of Use” (AMGEN INC., priority 2014, published 2016).

Read-outs that look alike come from different tables or passages of the source.

Test [1] concerns the target Recombinant Cat D (Homo sapiens (Human), UniProt P07339). The experiment in a line: In vitro enzymatic Cathepsin D (Cat D) FRET assay. The note with it: read-out: IC50 IP (μM) CatD. In kind it is biochemical. Summed up: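 Recombinant Cat D expressed in CHO cells, assayed in 0.05 M citrate pH 3.5 with 5 mM CHAPS and 10% DMSO final. Reaction started with 20 nM FRET peptide substrate, incubated one hour, then stopped by Tris buffer to neutral pH; fluorescence read at ex 500/em 580 nm.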

Test [2] has as its system Aβ40 in conditioned medium of cells stably expressing Amyloid Precursor Protein (APP). The experiment in a line: In vitro BACE-1 cell-based assay (Aβ40 sandwich ELISA). The following applies: read-out: IC50 IP (μM) BACE1 cell. Summed up:
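APP-expressing cells treated 24 h at 37 °C with compound in 10-point dose response (top 100 μM or 10 μM, 0.1% DMSO final). Secreted Aβ40 in conditioned medium quantified by sandwich ELISA (pAb40 capture, biotinylated 6E10 detection, time-resolved europium fluorescence); IC50 from percent inhibition versus concentration.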

Test [3] concerns the target human recombinant BACE1 (Homo sapiens (Human), UniProt P56817). In words: In vitro enzymatic BACE1 FRET assay. The following applies: read-out: IC50 IP (μM) BACE1 enzyme. In kind it is biochemical. The gist of the method: (§1)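 Protease purified by Ni-NTA chromatography; start with FRET substrate (50 nM); incubate 1 h; quench with Tris to neutral pH; read fluorescence ex 488 / em 590 nm.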

Test [4] concerns the target human recombinant BACE2 (Homo sapiens (Human), UniProt Q9Y5Z0). In words: In vitro enzymatic BACE2 FRET assay. In kind it is biochemical. The note with it: read-out: IC50 IP (μM) BACE2 enzyme. Summed up: as §1

Chain of Recombinant Cat D (P07339 65-412): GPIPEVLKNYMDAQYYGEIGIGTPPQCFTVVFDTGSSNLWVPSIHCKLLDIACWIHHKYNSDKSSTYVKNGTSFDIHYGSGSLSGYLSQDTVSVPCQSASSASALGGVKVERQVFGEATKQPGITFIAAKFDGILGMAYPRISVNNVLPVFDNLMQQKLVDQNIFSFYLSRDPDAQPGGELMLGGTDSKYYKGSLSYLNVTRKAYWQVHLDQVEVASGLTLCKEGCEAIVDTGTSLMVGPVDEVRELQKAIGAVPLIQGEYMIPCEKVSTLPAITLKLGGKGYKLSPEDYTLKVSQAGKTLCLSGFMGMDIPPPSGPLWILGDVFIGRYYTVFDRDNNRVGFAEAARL
Chain of human recombinant BACE1 (P56817 46-501): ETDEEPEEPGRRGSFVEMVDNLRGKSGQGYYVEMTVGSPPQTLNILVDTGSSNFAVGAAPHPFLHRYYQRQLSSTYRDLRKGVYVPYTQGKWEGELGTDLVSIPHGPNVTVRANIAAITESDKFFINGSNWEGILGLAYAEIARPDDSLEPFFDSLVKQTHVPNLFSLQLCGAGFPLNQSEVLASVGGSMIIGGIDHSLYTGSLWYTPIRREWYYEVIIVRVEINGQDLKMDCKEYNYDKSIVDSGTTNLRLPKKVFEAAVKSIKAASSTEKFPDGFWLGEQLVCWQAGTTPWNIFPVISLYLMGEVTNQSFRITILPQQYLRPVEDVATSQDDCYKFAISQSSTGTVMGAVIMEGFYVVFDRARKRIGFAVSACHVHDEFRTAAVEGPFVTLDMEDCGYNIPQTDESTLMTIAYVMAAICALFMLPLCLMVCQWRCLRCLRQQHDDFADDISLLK
Chain of human recombinant BACE2 (Q9Y5Z0 63-518): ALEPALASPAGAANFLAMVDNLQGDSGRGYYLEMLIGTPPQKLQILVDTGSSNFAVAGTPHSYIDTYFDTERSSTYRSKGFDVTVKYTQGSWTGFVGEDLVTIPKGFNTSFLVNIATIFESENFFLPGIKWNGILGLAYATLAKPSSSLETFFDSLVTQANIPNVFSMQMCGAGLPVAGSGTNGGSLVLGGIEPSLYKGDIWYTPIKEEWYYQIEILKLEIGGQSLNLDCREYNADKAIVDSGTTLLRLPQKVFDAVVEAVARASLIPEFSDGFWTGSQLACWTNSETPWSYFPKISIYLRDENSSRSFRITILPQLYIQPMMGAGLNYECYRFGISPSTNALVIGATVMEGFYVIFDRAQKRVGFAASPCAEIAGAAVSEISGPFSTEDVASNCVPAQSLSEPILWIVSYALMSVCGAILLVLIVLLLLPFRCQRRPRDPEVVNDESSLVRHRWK

In the case of `C[C@]1(c2cc(NC(=O)c3cnc(OCC(F)(F)F)cn3)ccc2F)N=C(N)S[C@@]2(C(=O)NCC(F)F)C[C@H]21` [Example 999, (1S,5S,6S)-3-amino-N-(2,2-difluoroethyl)-5-(2-fluoro-5-(5-(2,2,2-trifluoroethoxy)pyrazine-2-carboxamido)phenyl)-5-methyl-2-thia-4-azabicyclo[4.1.0]hept-3-ene-1-carboxamide], the IC50 in test [1] was determined as 180 µM; in test [2] it was 0.00613 µM; in test [3] it was 0.09 nM; in test [4], 0.0755 µM.

Turning to `COCCOc1cnc2c(Nc3cc(F)c(F)c([C@@]4(C)N=C(N)S[C@@]5(COC)C[C@H]54)c3)ncnc2c1` [Example 946, N-(3-((1S,5S,6S)-3-amino-1-(methoxymethyl)-5-methyl-2-thia-4-azabicyclo[4.1.0]hept-3-en-5-yl)-4,5-difluorophenyl)-7-(2-methoxyethoxy)pyrido[3,2-d]pyrimidin-4-amine], the IC50 in test [1] turned out to be 352 µM; in test [2], 0.0174 µM; in test [3], 26.8 nM; in test [4], 0.517 µM.

For the compound `CC(C)[C@@H](C)NC(=O)[C@]12C[C@H]1[C@@](C)(c1cc(NC(=O)c3cnc(OCC(F)(F)F)cn3)ccc1F)N=C(N)S2` [Example 997, (1S,5S,6S)-3-amino-5-(2-fluoro-5-(5-(2,2,2-trifluoroethoxy)pyrazine-2-carboxamido)phenyl)-5-methyl-N—((R)-3-methylbutan-2-yl)-2-thia-4-azabicyclo[4.1.0]hept-3-ene-1-carboxamide], the IC50 in test [1] worked out at 9.48 µM; in test [2] it was 0.00672 µM; in test [3], 0.893 nM; in test [4], 0.0509 µM.

In the case of `C#CCOc1cnc2c(Nc3ccc(F)c([C@@]4(CF)N=C(N)S[C@@]5(c6c[nH]nn6)C[C@@H]45)c3)nccc2n1` [Example 960, N-(3-((1S,5S,6S)-3-amino-5-(fluoromethyl)-1-(1H-1,2,3-triazol-4-yl)-2-thia-4-azabicyclo[4.1.0]hept-3-en-5-yl)-4-fluorophenyl)-2-(2-propyn-1-yloxy)pyrido[3,4-b]pyrazin-5-amine], the 50% inhibitory concentration (IC50) is greater than 400 µM in test [1], 0.00624 µM in test [2], 0.507 nM in test [3] and 0.00422 µM in test [4].

Turning to `C[C@H](Oc1cnc2c(Nc3cc(F)c(F)c([C@@]4(C)N=C(N)S[C@@]5(C(=O)N6CCCC6)C[C@H]54)c3)nccc2n1)c1ncco1` [Example 938, N-(3-((1S,5S,6S)-3-amino-5-methyl-1-(1-pyrrolidinylcarbonyl)-2-thia-4-azabicyclo[4.1.0]hept-3-en-5-yl)-4,5-difluorophenyl)-2-((1S)-1-(1,3-oxazol-2-yl)ethoxy)pyrido[3,4-b]pyrazin-5-amine], the IC50 worked out at 162 µM in test [1], 0.00508 µM in test [2], 1.29 nM in test [3] and 0.0633 µM in test [4].

As to `COC[C@]12C[C@H]1[C@@](CF)(c1cc(Nc3ncnc4cc(Cl)cnc34)ccc1F)N=C(N)S2` [Example 73, N-(3-((1S,5S,6S)-3-amino-5-(fluoromethyl)-1-(methoxymethyl)-2-thia-4-azabicyclo[4.1.0]hept-3-en-5-yl)-4-fluorophenyl)-7-chloropyrido[3,2-d]pyrimidin-4-amine], the IC50 in test [1] (Cathepsin D FRET enzyme assay) is greater than 400 µM; in test [2] (BACE1 cell-based assay), 0.0177 µM; in test [3] (BACE1 FRET enzyme assay), 9.11 nM; in test [4] (BACE2 FRET enzyme assay), 0.00296 µM.

In the case of `C#CCOc1cnc2c(Nc3cc(F)c(F)c([C@@]4(C)N=C(N)S[C@@]5(C(=O)N6CCCC6)C[C@H]54)c3)ncnc2c1` [Example 933, N-(3-((1S,5S,6S)-3-amino-5-methyl-1-(1-pyrrolidinylcarbonyl)-2-thia-4-azabicyclo[4.1.0]hept-3-en-5-yl)-4,5-difluorophenyl)-7-(2-propyn-1-yloxy)pyrido[3,2-d]pyrimidin-4-amine], the IC50 in test [1] is 315 µM; in test [2], 0.000709 µM; in test [3], 0.526 nM; in test [4], 0.00491 µM.

For `CC(C)(C)NC(=O)[C@]12C[C@H]1[C@@](C)(c1cc(NC(=O)c3ccc(Cl)cn3)ccc1F)N=C(N)S2` [Example 797, (1S,5S,6S)-3-amino-N-tert-butyl-5-(5-(((5-chloro-2-pyridinyl)carbonyl)amino)-2-fluorophenyl)-5-methyl-2-thia-4-azabicyclo[4.1.0]hept-3-ene-1-carboxamide], the IC50 is 147 µM in test [1], 0.0211 µM in test [2], 4.52 nM in test [3] and less than 0.00203 µM in test [4].

On to `C#CCOc1cnc2c(Nc3cnc(F)c([C@@]4(C)N=C(N)S[C@@]5(CF)C[C@H]54)c3)ncnc2c1` [Example 944, N-(5-((1S,5S,6S)-3-amino-1-(fluoromethyl)-5-methyl-2-thia-4-azabicyclo[4.1.0]hept-3-en-5-yl)-6-fluoro-3-pyridinyl)-7-(2-propyn-1-yloxy)pyrido[3,2-d]pyrimidin-4-amine], for which the IC50 is greater than 400 µM in test [1], 0.00216 µM in test [2], 1.02 nM in test [3] and 0.0696 µM in test [4].

Consider `N#CC[C@]12C[C@H]1[C@@](CF)(c1cc(Nc3nccc4cc(C#N)cnc34)ccc1F)N=C(N)S2` [Example 719, 8-((3-((1R,5S,6S)-3-amino-1-(cyanomethyl)-5-(fluoromethyl)-2-thia-4-azabicyclo[4.1.0]hept-3-en-5-yl)-4-fluorophenyl)amino)-1,7-naphthyridine-3-carbonitrile], for which the 50% inhibitory concentration (IC50) came out at 1490 µM in test [1], 0.0138 µM in test [2], 4.42 nM in test [3] and 0.00397 µM in test [4].

`C[C@]1(c2cc(Nc3nccc4cc(Cl)cnc34)cc(F)c2F)N=C(N)S[C@@]2(CO)C[C@H]21` [Example 30, ((1S,5S,6S)-3-amino-5-(5-((3-chloro-1,7-naphthyridin-8-yl)amino)-2,3-difluorophenyl)-5-methyl-2-thia-4-azabicyclo[4.1.0]hept-3-en-1-yl)methanol]: the IC50 was 958 µM in test [1] (Cathepsin D FRET enzyme assay), 0.00851 µM in test [2] (BACE1 cell-based assay), 1.52 nM in test [3] (BACE1 FRET enzyme assay) and less than 0.00203 µM in test [4] (BACE2 FRET enzyme assay).

Turning to `COC[C@]12C[C@H]1[C@@](C)(c1cc(NC(=O)c3cnc(OC4COC4)cn3)ccc1F)N=C(N)S2` [Example 1067, N-(3-((1S,5S,6S)-3-amino-1-(methoxymethyl)-5-methyl-2-thia-4-azabicyclo[4.1.0]hept-3-en-5-yl)-4-fluorophenyl)-5-(oxetan-3-yloxy)pyrazine-2-carboxamide], the IC50 in test [1] is 2050 µM; in test [2], 0.0238 µM; in test [3], 26.4 nM; in test [4], 1.63 µM.

`NC1=N[C@](CF)(c2cc(NC(=O)c3ccc(Cl)cn3)ccc2F)[C@@H]2C[C@]2(CF)S1` [Example 41, N-(3-((1S,5S,6S)-3-amino-1,5-bis(fluoromethyl)-2-thia-4-azabicyclo[4.1.0]hept-3-en-5-yl)-4-fluorophenyl)-5-chloro-2-pyridinecarboxamide]: the IC50 is greater than 400 µM in test [1] (Cathepsin D FRET enzyme assay), 0.00596 µM in test [2] (BACE1 cell-based assay), 2.27 nM in test [3] (BACE1 FRET enzyme assay) and less than 0.00203 µM in test [4] (BACE2 FRET enzyme assay).

For the compound `Cc1nc(OCC(F)(F)F)cnc1C(=O)Nc1ccc(F)c([C@@]2(C)N=C(N)S[C@@]3(C(F)F)C[C@@H]23)c1` [Example 623, N-(3-((1S,5S,6S)-3-amino-1-(difluoromethyl)-5-methyl-2-thia-4-azabicyclo[4.1.0]hept-3-en-5-yl)-4-fluorophenyl)-3-methyl-5-(2,2,2-trifluoroethoxy)-2-pyrazinecarboxamide], the 50% inhibitory concentration (IC50) in test [1] was 641 µM; in test [2] it was 0.0671 µM; in test [3], 5.75 nM; in test [4] it was 0.0485 µM.

By IC50 is commonly meant the midpoint of a concentration-inhibition curve.
